Where “and” joins values, the source holds several entries; their conditions need not be identical. Equal entries are not always repeated. Entries after “also recorded” stand apart in the source; their conditions may differ. Where two headings read alike, the source gives them in different places.
Columns and labels:
Parainfluenza-3 virus = conditions: read-out: Minimum inhibitory concentration Parainfluenza-3 virus; Vero; reduces virus-induced cytopathogenicity by 50%
HIV (SF2 virus) [1] = assay: HIV infectivity assay, SF2-infected H9 cells, p24 quantification; assay type: cell-based; conditions: for OD1: replicates (1)-(3)
Protocol: The remaining wells were filled with sterile distilled water. The cell culture plates were incubated at 37° C. and 5% CO2. After four days the medium was changed, after eight days the medium was changed and the cells were collected. After 11 days, the infection was stopped, the cells were viewed in a 10× magnification microscope and 650 μl of each cell supernatant was collected and frozen at −80° C. for further analysis. After five more days, the supernatants were thawed and used in a conventional reverse transcriptase (RT) activity assay (e.g., Roche AMPLICOR MONITOR™) or a p24 quantification assay (e.g., Abbott Laboratories, Chicago). (See U.S. Pat. No. 6,258,932 and U.S. patent application Ser. No. 10/235,158, both of which are hereby expressly incorporated by reference in its entireties).
[…] The cells in the samples were counted and then centrifuged. The cells were then resuspended in 10 ml of RPMI 1640 (containing fetal calf serum) and either […] Metabolite X or 100 μM GPG-NH2. Uninfected control and untreated control samples were also included in the experiment. The samples were then incubated overnight at 37° C. at 5% CO2.
Then, the amount of p24 in the samples was analysed using a conventional p24 detection assay (see U.S. Pat. No. 6,258,932).
Three replicate samples (“replicates”) of uninfected samples and untreated samples were also included in the experiment as controls. The inhibition of HIV replication was monitored by quantifying the levels of p24 using a conventional detection kit.
Three replicates of unninfected samples and untreated samples were also included in the experiment as controls.

HIV-1 (IIIB) = assay: microbe, parasite or virus in culture
Outline: (§1)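 MT-4, C8166 or CEM cells (4 to 5×10^5 cells/ml) infected at ~100 CCID50/ml, incubated with 5-fold compound dilutions at 37 °C for 4–5 days. Read-out: microscopic giant-cell formation in CEM and C8166 cultures; viable-cell count by trypan blue in MT-4.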

HIV-2(ROD) = assay: microbe, parasite or virus in culture
Outline: as §1

HIV-2 (EHO) = conditions: read-out: EC50 HIV-2 EHO; CEM cell cultures, syncytia formation
HIV-1 (NL4.3) = conditions: read-out: EC50 HIV-1 NL3.4; CEM cell cultures, syncytia formation
HIV-2 (ROD) = assay: microbe, parasite or virus in culture; assay type: cell-based; conditions: CEM cell cultures, syncytia formation, Table 1; read-out: EC50 HIV-2 ROD
Outline: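 CEM, C8166 or MT-4 cells (4 to 5×10^5 cells/ml) infected with HIV-2 ROD at ~100 CCID50/ml, then incubated with 5-fold compound dilutions at 37 °C for 4–5 days. Giant cell formation scored microscopically in CEM and C8166 cultures; MT-4 viability counted by trypan blue exclusion.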

HIV (SF2 virus) [2] = assay: HIV infectivity assay, SF2-infected H9 cells, reverse transcriptase (RT) quantification in supernatant; assay type: cell-based; conditions: for OD405-620 / OD405-620 - Blank / RT mean / RT: fetal calf serum; for RT mean: mean of replicates; for RT: single replicate
Sindbis virus = conditions: read-out: Minimum inhibitory concentration Sindbis virus; Vero; reduces virus-induced cytopathogenicity by 50%
Coxsackie virus B4 = assay: Antiviral activity in HeLa cell cultures, Coxsackie virus B4; assay type: cell-based; conditions: reduces virus-induced cytopathogenicity by 50%, read-out: Minimum inhibitory concentration Coxsackie virus B4
Protocol: The cytotoxicity and antiviral activity of various concentrations of G-NH2 and GPG-NH2 were evaluated in cell cultures that were infected with various types of viruses. Conventional host cell culture, viral infection, and infectivity analysis for each different type of cell and virus were followed. Compounds that were known to inhibit replication of the particular types of viruses analyzed were used as controls.

NCC(N)=O [G-NH2, glycinamide]
EC50 (Parainfluenza-3 virus): > 2000 µM
OD1 (HIV (SF2 virus) [1]; 50 μM, fetal calf serum): 0.182 and 0.105 and 0.319
conc p24 (HIV (SF2 virus) [1]; 50 μM, human serum): 714.23 ng/mL and 653.27 ng/mL and 773.51 ng/mL
OD2 (HIV (SF2 virus) [1]; 100 μM, fetal calf serum): 0.075 and 0.069 and 0.071
conc p24 (HIV (SF2 virus) [1]; 100 μM, fetal calf serum): 0.09 ng/mL and 0.08 ng/mL
mean OD (HIV (SF2 virus) [1]; 100 μM, fetal calf serum): 0.077 and 0.070 and 0.074
mean OD - blank (HIV (SF2 virus) [1]; 100 μM, fetal calf serum): 0.035 and 0.028 and 0.032
OD1 (HIV (SF2 virus) [1]; 100 μM, fetal calf serum): 0.078 and 0.071 and 0.077
conc p24 (HIV (SF2 virus) [1]; 100 μM, human serum): 780.21 ng/mL and 785.24 ng/mL and 876.34 ng/mL
inhibition of HIV replication, accumulation of p24 (HIV (SF2 virus) [1]; human serum): unable to inhibit HIV replication in human serum
EC50 (HIV-1 (IIIB); read-out: EC50 (C8166) HIV-1 (IIIB), Table 19): 150 µM
EC50 (HIV-1 (IIIB); read-out: EC50 (C8166) HIV-1 (IIIB), Table 20): 150 µM
EC50 (HIV-1 (IIIB); read-out: EC50 (MT-4) HIV-1 (IIIB), Table 19): > 500 µM
EC50 (HIV-1 (IIIB); read-out: EC50 (MT-4) HIV-1(IIIB), Table 20, related set of experiments): > 500 µM
EC50 (HIV-2(ROD); read-out: EC50 (C8166) HIV-2 (ROD), Table 19): 150 µM
EC50 (HIV-2(ROD); read-out: EC50 (C8166) HIV-2 (ROD), Table 20): 150 µM
EC50 (HIV-2(ROD); read-out: EC50 (MT-4) HIV-2 (ROD), Table 19): > 500 µM
EC50 (HIV-2(ROD); read-out: EC50 (MT-4) HIV-2 (ROD), Table 20): > 500 µM
EC50 (HIV-2 (EHO)): 37 ± 5.8 µM
EC50 (HIV-1 (NL4.3)): 45 ± 7.1 µM
EC50 (HIV-2 (ROD)): 35 ± 8.7 µM
OD405-620 (HIV (SF2 virus) [2]; 0.5 μM): 0.871 and 0.896 and 0.908
OD405-620 - Blank (HIV (SF2 virus) [2]; 0.5 μM): 0.845 and 0.87 and 0.882
RT mean (HIV (SF2 virus) [2]; 0.5 μM): 9152 pg/mL
RT (HIV (SF2 virus) [2]; 0.5 μM): 8927 pg/mL and 9199 pg/mL and 9329 pg/mL
OD405-620 (HIV (SF2 virus) [2]; 1 μM): 0.563 and 0.672 and 0.712
OD405-620 - Blank (HIV (SF2 virus) [2]; 1 μM): 0.537 and 0.646 and 0.686
RT mean (HIV (SF2 virus) [2]; 1 μM): 6514 pg/mL
RT (HIV (SF2 virus) [2]; 1 μM): 5579 pg/mL and 6764 pg/mL and 7199 pg/mL
OD405-620 (HIV (SF2 virus) [2]; 2 μM): 0.868 and 0.903 and 0.528
OD405-620 - Blank (HIV (SF2 virus) [2]; 2 μM): 0.842 and 0.877 and 0.502
RT mean (HIV (SF2 virus) [2]; 2 μM): 7789 pg/mL
RT (HIV (SF2 virus) [2]; 2 μM): 8895 pg/mL and 9275 pg/mL and 5199 pg/mL
OD405-620 (HIV (SF2 virus) [2]; 4 μM): 0.781 and 0.493 and 0.539
OD405-620 - Blank (HIV (SF2 virus) [2]; 4 μM): 0.755 and 0.467 and 0.513
RT mean (HIV (SF2 virus) [2]; 4 μM): 6029 pg/mL
RT (HIV (SF2 virus) [2]; 4 μM): 7949 pg/mL and 4818 pg/mL and 5318 pg/mL
OD405-620 (HIV (SF2 virus) [2]; 8 μM): 0.274 and 0.302 and 0.332
OD405-620 - Blank (HIV (SF2 virus) [2]; 8 μM): 0.248 and 0.276 and 0.306
RT mean (HIV (SF2 virus) [2]; 8 μM): 2750 pg/mL
RT (HIV (SF2 virus) [2]; 8 μM): 2438 pg/mL and 2742 pg/mL and 3068 pg/mL
OD405-620 (HIV (SF2 virus) [2]; 16 μM): 0.563 and 0.861 and 0.902
OD405-620 - Blank (HIV (SF2 virus) [2]; 16 μM): 0.537 and 0.835 and 0.876
RT mean (HIV (SF2 virus) [2]; 16 μM): 158 pg/mL
RT (HIV (SF2 virus) [2]; 16 μM): 112 pg/mL and 176 pg/mL and 185 pg/mL
OD405-620 (HIV (SF2 virus) [2]; 32 μM): 0.141 and 0.155
OD405-620 - Blank (HIV (SF2 virus) [2]; 32 μM): 0.115 and 0.129
RT mean (HIV (SF2 virus) [2]; 32 μM): 21 pg/mL
RT (HIV (SF2 virus) [2]; 32 μM): 20 pg/mL and 23 pg/mL
inhibition of HIV replication, reverse transcriptase (RT) activity (HIV (SF2 virus) [2]; cultures containing boiled fetal calf serum): unable to inhibit replication of HIV; also recorded: did not
EC50 (Sindbis virus): > 2000 µM
EC50 (Coxsackie virus B4): > 2000 µM

Source: patent US20080076824A1, “Compounds That Inhibit Replication Of Human Immunodeficiency Virus” (priority 2004, published 2008)
